Test [1] deals with Pseudomonas aeruginosa. Description: Antibacterial activity against Pseudomonas aeruginosa PAO397 [PAO1 d(mexAB-oprM) d(mexCD-oprJ) d(mexEF-oprN) d(mexJKL) d(mexXY) d(opmH)] (CO-ADD:GN_211); MIC in CAMBH media using NBS plates, by OD(600). The class given is functional. The note with it: ASSAY_TEST Inhibition of Bacterial Growth, detection method Absorption (OD600), MEDIA CAMHB, plate type 384well, CORNING #3640, time 18 hr.

Test [2] concerns Acinetobacter baumannii. The test can be described thus: microbe, parasite or virus in culture. The note with it: ATCC 19606, 18 h, ASSAY_TEST Inhibition of Bacterial Growth, detection method Absorption (OD600), MEDIA CAMHB, plate type 384well, NBS, CORNING #3640.
Description: Antibacterial activity against Acinetobacter baumannii ATCC 19606 (CO-ADD:GN_034); MIC in CAMBH media using NBS plates, by OD600
Test [3] has as its system Pseudomonas aeruginosa. Description: microbe, parasite or virus in culture. To be noted: ATCC 27853, 18 h, ASSAY_TEST Inhibition of Bacterial Growth, detection method Absorption (OD600), MEDIA CAMHB, plate type 384well, NBS, CORNING #3640.
Description: Antibacterial activity against Pseudomonas aeruginosa ATCC 27853 (CO-ADD:GN_042); MIC in CAMBH media using NBS plates, by OD(600)

We go through 63 molecules from ChEMBL document CHEMBL4513160, “CO-ADD screening of MMV (CH) - Small Polar Library”.

Values after ≈ are worked out from the molar mass of the structure shown.

On to `c1cc2c(cc1C1=NN=C(NC3CC3)SC1)OCCO2`, for which the MIC in test [1], in test [2] and in test [3] was above 300 µM each time.
For `O=C(c1ccc(Br)s1)N1CCN(c2ccccn2)CC1`, the MIC in test [1], in test [2] and in test [3] was above 300 µM in each case.
With `CN(C)CCC(=O)c1ccc(F)cc1`, the MIC in test [1], in test [2] and in test [3] was above 300 µM in each case.
On to `NCCNc1ccc2ccccc2n1`, for which the MIC in test [1], in test [2] and in test [3] was above 300 µM throughout.
Take `CC(C)CCC(=O)N[C@@H]1CN(C)C[C@H]1CN(C)C`: the MIC in test [1], in test [2] and in test [3] was above 300 µM throughout.
With `Clc1cccnc1N1CCC(Nc2cccnc2)CC1`, the MIC in test [1], in test [2] and in test [3] was above 300 µM in each case.
Take `Cc1ccc(C(=O)N2CCN(c3nccs3)CC2)o1`: the MIC in test [1], in test [2] and in test [3] was above 300 µM in each case.
On to `OCCCN(CCO)Cc1c(Cl)ccc2cccnc12`, for which the MIC in test [1], in test [2] and in test [3] was above 300 µM each time.
`c1cn2c(n1)COCC2`: the MIC in test [1], in test [2] and in test [3] was above 300 µM in each case.
For `Cc1cscc1C(=O)Nc1ncnn1C`, the MIC in test [1], in test [2] and in test [3] was above 300 µM in each case.
On to `CN(C)C(=O)CNC(=O)NCc1cc(F)ccc1Br`, for which the MIC in test [1], in test [2] and in test [3] was above 300 µM in each case.
Turning to `N#CC(c1ccc(Br)cc1)N1CCNCC1` (centres undefined), the MIC in test [1], in test [2] and in test [3] was above 300 µM in each case.
In the case of `Cc1cccc(S(=O)(=O)NC2CCNC2)c1Cl` (centres undefined), the MIC in test [1], in test [2] and in test [3] was above 300 µM in each case.
Consider `COc1cc(F)cc(NCC(=O)NCc2ccco2)c1`, for which the MIC in test [1], in test [2] and in test [3] was above 300 µM throughout.
Turning to `NCC1CCN(Cc2cccc(F)c2)CC1`, the MIC in test [1], in test [2] and in test [3] was above 300 µM throughout.
As for `CCc1cccc(S(=O)(=O)N2CCC(NC)C2)c1` (centres undefined), the MIC in test [1], in test [2] and in test [3] was above 300 µM in each case.
With `OCCNCCNCc1ccc(-c2cccc(Cl)c2)o1`, the MIC in test [1], in test [2] and in test [3] was above 300 µM throughout.
As for `CC(=O)c1ccc(NC(=O)CCc2cccs2)nc1`, the MIC in test [1], in test [2] and in test [3] was above 300 µM each time.
Take `COc1ccc(CNCCCSc2nnnn2C)cc1`: the MIC in test [1], in test [2] and in test [3] was above 300 µM in each case.
With `NC1CSCc2c(F)cccc21` (centres undefined), the MIC in test [1], in test [2] and in test [3] was above 300 µM throughout.
For `Ic1nnnn1-c1ccccc1`, the MIC in test [1] is 25 µM (≈ 6.8 µg/mL); in test [2], above 300 µM; in test [3], 60 µM (≈ 16.3 µg/mL).
The like results for `c1ccc(Nc2nccs2)nc1` were, in that order, above 300 µM, above 300 µM and above 300 µM.
With `CN(Cc1ccc(O)cc1)C(=O)c1cc(Cl)c[nH]1`, the MIC in test [1], in test [2] and in test [3] was above 300 µM each time.
Take `OC[C@@H]1CCCN1Cc1ccc(F)c2cccnc12`: the MIC in test [1], in test [2] and in test [3] was above 300 µM in each case.
As to `O=C(Nc1cc[nH]n1)c1csc(I)c1`, the MIC in test [1], in test [2] and in test [3] was above 300 µM each time.
As to `CCS(=O)(=O)NCC(N)c1ccc(C(C)C)cc1` (centres undefined), the MIC in test [1], in test [2] and in test [3] was above 300 µM in each case.
Regarding `Cc1ccncc1NC1CS(=O)(=O)c2ccccc21` (centres undefined), the MIC in test [1], in test [2] and in test [3] was above 300 µM in each case.
In the case of `Cn1c(CN)nc2cc(Cl)ccc21`, the MIC in test [1], in test [2] and in test [3] was above 300 µM throughout.
Take `COc1c(C(=O)N2CCOCC2)sc2ccc(F)cc12`: the MIC in test [1], in test [2] and in test [3] was above 300 µM throughout.
For the molecule `NCCS(=O)(=O)N1CCCc2ccccc21`, the MIC in test [1], in test [2] and in test [3] was above 300 µM throughout.
With `Cn1ncnc1NC(=O)c1ccc(C#N)cc1`, the MIC is 200 µM (≈ 45.4 µg/mL) in test [1], above 300 µM in test [2] and 200 µM (≈ 45.4 µg/mL) in test [3].
With `CCC(C)(C)NC(=O)c1nnn(-c2ccccc2)c1C`, the MIC in test [1], in test [2] and in test [3] was above 300 µM in each case.
With `C1CCC(C2CCNCC2)OC1` (centres undefined), the MIC in test [1], in test [2] and in test [3] was above 300 µM each time.
Consider `O=C(NC[C@H]1CCCN1)c1ccc2cccc(Cl)c2n1`, for which the MIC in test [1] was 300 µM (≈ 86.9 µg/mL); in test [2], above 300 µM; in test [3], above 300 µM.
With `N[C@@H]1CCCc2c(F)cc(F)cc21`, the MIC in test [1], in test [2] and in test [3] was above 300 µM in each case.
For the molecule `CS(=O)(=O)c1ccc(CN)o1`, the MIC in test [1], in test [2] and in test [3] was above 300 µM each time.
Turning to `NS(=O)(=O)NCC1CCN(c2cccc(Br)c2)C1` (centres undefined), the MIC in test [1], in test [2] and in test [3] was above 300 µM each time.
On to `NCC1Cc2ccccc21` (centres undefined), for which the MIC in test [1], in test [2] and in test [3] was above 300 µM each time.
`Cc1cccc(OCCc2noc(C3CNC3)n2)c1`: the values for the MIC in test [1], in test [2] and in test [3] were 200 µM (≈ 51.9 µg/mL), above 300 µM and above 300 µM, respectively.
For the molecule `CCCNc1nc(C)c(C(C)=O)s1`, the MIC in test [1] is 200 µM (≈ 39.7 µg/mL); in test [2], above 300 µM; in test [3], above 300 µM.
Turning to `NCc1cccc(-c2nccs2)c1`, the MIC in test [1], in test [2] and in test [3] was above 300 µM in each case.
`CCOc1ccc(Cl)cc1CCNS(=O)(=O)N(C)C`: the MIC in test [1], in test [2] and in test [3] was above 300 µM each time.
As for `Fc1cccnc1OC1CCNCC1`, the MIC in test [1], in test [2] and in test [3] was above 300 µM in each case.
With `N#Cc1nnc(-c2ccccc2)o1`, the MIC in test [1], in test [2] and in test [3] was above 300 µM in each case.
Regarding `CSC(C)(C)COC(=O)c1ccc(-n2ccnc2)nc1`, the MIC in test [1], in test [2] and in test [3] was above 300 µM each time.
As to `CCC(C#N)NC(=O)c1cnc(OC(C)C)c(Cl)c1` (centres undefined), the MIC in test [1], in test [2] and in test [3] was above 300 µM each time.
Consider `NCCc1cccc2cc[nH]c12`, for which the MIC in test [1], in test [2] and in test [3] was above 300 µM in each case.
`COc1cccc(CNCc2ccccn2)c1`: the MIC in test [1], in test [2] and in test [3] was above 300 µM throughout.
Turning to `Cc1ocnc1C(=O)Nc1ccc2c(c1)NCCC2`, the MIC in test [1], in test [2] and in test [3] was above 300 µM each time.
For `COC(CN)CC(C)C` (centres undefined), the MIC in test [1], in test [2] and in test [3] was above 300 µM throughout.
With `OCCNCCNCc1ccc(-c2ccccc2F)o1`, the MIC in test [1], in test [2] and in test [3] was above 300 µM throughout.
As to `CN(C)C(=O)Nc1cc(F)cc(F)c1`, the MIC in test [1], in test [2] and in test [3] was above 300 µM each time.
`CNCC(=O)NC(C)c1nc(-c2ccc(Br)cc2)no1` (centres undefined): the MIC in test [1], in test [2] and in test [3] was above 300 µM throughout.
Turning to `CNc1nnc(-c2ccccc2)s1`, the MIC in test [1], in test [2] and in test [3] was above 300 µM each time.
Take `CCOC(=O)C(CN)CC(C)C` (centres undefined): the MIC in test [1], in test [2] and in test [3] was above 300 µM in each case.
For the molecule `CC(C)C(=O)c1cnccc1N`, the MIC in test [1], in test [2] and in test [3] was above 300 µM throughout.
In the case of `Cc1ccc(C(N)c2ccccn2)cc1` (centres undefined), the MIC in test [1], in test [2] and in test [3] was above 300 µM in each case.
Regarding `NCc1nc(-c2ccc(Cl)cc2)c[nH]1`, the MIC in test [1], in test [2] and in test [3] was above 300 µM each time.
`CCN1CCN(c2cc(C#N)ccn2)CC1`: the MIC in test [1], in test [2] and in test [3] was above 300 µM each time.
Take `O=C1c2ccccc2OCC1CN1CCOCC1` (centres undefined): the MIC in test [1], in test [2] and in test [3] was above 300 µM in each case.
For `Cc1ccc(C)c2c(=O)cc(CN3CCC(N)C3)[nH]c12` (centres undefined), the MIC in test [1], in test [2] and in test [3] was above 300 µM in each case.
Turning to `Cc1cccc(NC(C)c2ccc(S(N)(=O)=O)cc2)n1` (centres undefined), the MIC in test [1], in test [2] and in test [3] was above 300 µM in each case.
For `Cc1cc(N2CCN(CCO)CC2)nc2ccccc12`, the MIC in test [1], in test [2] and in test [3] was above 300 µM in each case.
